According to article PMC9564337, “Development of a Neurotensin-Derived ^68Ga-Labeled PET Ligand with High In Vivo Stability for Imaging of NTS1 Receptor-Expressing Tumors” (Cancers, 2022):
Read-outs that look alike come from different tables or passages of the source. Residues, ends and D or L forms follow the SMILES beside them.

Key:
in vitro = in vitro ADME; conditions: human, plasma; for remaining at 1 h, 100 µM: pH 7.4, % Intact Peptide in Plasma after 1 h; for remaining at 6 h, 100 µM: pH 7.4, % Intact Peptide in Plasma after 6 h; for remaining at 24 h, 100 µM: pH 7.4, % Intact Peptide in Plasma after 24 h; for remaining at 48 h, 100 µM: pH 7.4, % Intact Peptide in Plasma after 48 h
Description: The concentration of the peptides in plasma/PBS (1:2 v/v) was 80 and 4 μM (recovery determination) or 100 μM (stability tests). Data analysis was based on UV detection at 220 nm (8, 9, 11, 12, 14-18, 21-23, 38-49, and 54-57) or fluorescence detection at 275/305 nm (19 and 20). Reference samples, representing 100% recovery, were prepared in duplicate (8, 9, 11, 14-16, and 19-21) or quadruplicate (12, 17, 18, 22, 23, 38-49, and 54-57). Recovery ratios were obtained by dividing the recovery of the peptide by the recovery of IS for each individual sample (n = 3-5). The obtained recoveries and the recovery ratios are summarized in Table S2, Supplementary Materials. […] Instead, the recovery ratios determined for the previously reported, structurally closely related peptide […] [40] were used for calculating the amount of remaining intact peptide in plasma.

hNTS1R = target: T1, hNTS1R (Homo sapiens, UniProt P30989); experiment: radioligand competition binding with [3H]UR-MK300 at intact HT-29 cells
T1 construct: intact HT-29 colon carcinoma cells expressing the hNTS1R; host or cells: HT-29 human colon carcinoma cells
Text: Specific binding data (obtained by subtracting unspecific binding from total binding) were normalized (100% = specifically bound radioligand in the absence of competitor) and plotted over log(concentration of competitor) followed by a four-parameter logistic fit (SigmaPlot 12.5, Systat Software, San José, CA, USA) (note: in the case of 40, the lower curve plateau of the sigmoidal fit was constrained to >0). […] The Ki values from individual experiments were transformed to pKi values, followed by the calculation of mean pKi values ± SD.

hNTS2R = hNTS2R (Homo sapiens, UniProt O95665); experiment: radioligand competition binding with [3H]UR-MK300 at intact HEK293T-hNTS2R cells; conditions: [3H]UR-MK300 c = 10 nM
Description: Two days prior to the experiment, white 96-well plates with clear bottoms (Costar, catalog no. 3610) were treated with poly-D-lysine hydrobromide (Sigma-Aldrich) for 10 min. The wells were washed with H2O and the plates were dried on air at rt overnight. […] After removal of the glutaraldehyde solution, the wells were washed twelve times with H2O and two times with culture medium (150–300 µL). […] On the day of the experiment, the culture medium was carefully removed using a multi-channel pipette (Transferpette S-12, Brand, Wertheim, Germany) and the cells were washed once with Dulbecco’s phosphate-buffered saline (D-PBS) containing Ca^2+ and Mg^2+ (1.8 mM CaCl2, 2.68 mM KCl, 1.47 mM KH2PO4, 3.98 mM MgSO4, 136.9 mM NaCl and 8.06 mM Na2HPO4) (200 μL, rt) followed by the careful pre-filling of the wells with 180 µL (total binding) or 160 µL (unspecific and competition binding) of D-PBS, supplemented with 1% BSA and 100 μg/mL bacitracin (Serva, Heidelberg, Germany) (in the following referred to as binding buffer). To determine total binding, 20 µL of a solution of the radioligand in binding buffer (10-fold concentrated compared to the final concentration) were added. […] To determine the displacing effect of a compound of interest, 20 µL of a solution of the respective compound in binding buffer (10-fold concentrated) and 20 µL of a 10-fold concentrated solution of the radioligand in binding buffer were added. During the incubation period of 2 h at 23 °C, the plates were gently shaken. […] The plates were sealed with a transparent sealing tape (permanent seal for microplates, PerkinElmer, product no. 1450–461) and turned upside down several times to achieve complete mixing. Prior to the measurement of the radioactivity with a MicroBeta2 plate counter (PerkinElmer), the plates were kept in the dark for at least 1 h. All experiments were performed in triplicate.

[1] = [3H]UR-MK300 c = 1 nM, HT-29 cells, 23 °C, read-out: Ki [nM] NTS1R (converted)
[2] = [3H]UR-MK300 c = 1 nM, HT-29 cells, 23 °C, read-out: pKi ± SD NTS1R (converted)
[3] = read-out: Ki [nM] NTS2R (converted)
[4] = read-out: pKi ± SD NTS2R (converted)

Chain of hNTS2R (O95665 whole entry): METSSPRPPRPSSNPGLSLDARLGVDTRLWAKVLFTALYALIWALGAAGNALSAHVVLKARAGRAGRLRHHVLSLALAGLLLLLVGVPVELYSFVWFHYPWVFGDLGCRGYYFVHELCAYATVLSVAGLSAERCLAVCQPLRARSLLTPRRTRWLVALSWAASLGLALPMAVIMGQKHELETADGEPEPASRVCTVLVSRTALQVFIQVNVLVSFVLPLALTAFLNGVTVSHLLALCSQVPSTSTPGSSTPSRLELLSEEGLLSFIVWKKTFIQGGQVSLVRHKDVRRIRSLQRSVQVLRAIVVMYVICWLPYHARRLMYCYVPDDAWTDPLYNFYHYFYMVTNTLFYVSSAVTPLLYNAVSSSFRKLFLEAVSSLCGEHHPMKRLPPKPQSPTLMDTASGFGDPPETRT
T1 sequence (P30989 whole entry): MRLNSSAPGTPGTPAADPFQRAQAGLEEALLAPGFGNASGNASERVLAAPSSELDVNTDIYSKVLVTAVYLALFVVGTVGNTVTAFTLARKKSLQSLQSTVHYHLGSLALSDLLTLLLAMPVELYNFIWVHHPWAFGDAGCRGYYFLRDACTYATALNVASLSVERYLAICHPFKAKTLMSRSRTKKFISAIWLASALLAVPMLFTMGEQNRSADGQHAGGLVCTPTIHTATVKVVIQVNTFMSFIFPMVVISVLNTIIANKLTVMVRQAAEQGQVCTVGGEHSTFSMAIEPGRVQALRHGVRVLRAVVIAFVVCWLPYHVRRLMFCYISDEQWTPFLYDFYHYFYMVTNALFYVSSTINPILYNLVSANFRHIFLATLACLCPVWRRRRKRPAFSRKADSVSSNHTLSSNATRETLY

remaining at 1 h, 100 µM (in vitro) | remaining at 6 h, 100 µM (in vitro) | remaining at 24 h, 100 µM (in vitro) | remaining at 48 h, 100 µM (in vitro) | Ki (hNTS1R; [1]) | Ki (hNTS1R; [2]) | Ki (hNTS2R; [3]) | Ki (hNTS2R; [4]) | NTS1R Selectivity (Ratio Ki (NTS2R)/Ki (NTS1R)) (hNTS1R) | lower NTS1R affinity compared to 56 (hNTS1R; 57 versus 56) | pKi ± SD NTS1R (hNTS1R; [3H]UR-MK300 c = 1 nM, HT-29 cells, 23 °C) | SMILES
25 ± 2% | < 1% | < 1% | < 1% | 2.6 nM | 2.34 nM |  |  |  |  |  | CC[C@H](C)[C@H](NC(=O)[C@H](Cc1ccc(O)cc1)NC(=O)[C@@H]1CCCN1C(=O)[C@H](CCCNC(=N)N)NC(=O)[C@H](CCCNC(=N)N)NC)C(=O)N[C@@H](CC1CC1)C(=O)O [Compound 46]
 |  |  |  | 5.4 nM | 5.01 nM | 6.5 nM | 6.03 nM | 1.2 |  |  | CN[C@@H](CCCNC(N)=NC(=O)NCCCCN)C(=O)N[C@@H](CCCNC(=N)N)C(=O)N1CCC[C@H]1C(=O)N[C@H](C(=O)N[C@H](C(=O)N[C@@H](CC(C)C)C(=O)O)C(C)(C)C)C(C)(C)c1ccc(O)cc1 [Compound 52]
 |  |  |  |  |  | 450 nM | 398 nM |  |  |  | CN[C@@H](CCCNC(N)=NC(=O)NCCCCN)C(=O)N[C@@H](CCCNC(=N)N)C(=O)N1CCC[C@H]1C(=O)N[C@@H](C(=O)N[C@H](C(=O)N[C@@H](CC(C)C)C(=O)O)C(C)(C)C)C(C)(C)c1ccc(O)cc1 [Compound 53]
> 99% | > 99% | 68 ± 1% | < 1% | 21 nM |  |  |  |  | 18 fold | 7.67 ± 0.04 | CN[C@@H](CCCNC(N)=NC(=O)NCCCCNC(=O)CN1CCN(CC(=O)O)CCN(CC(=O)O)CCN(CC(=O)O)CC1)C(=O)N[C@@H](CCCNC(=N)N)C(=O)N1CCC[C@H]1C(=O)N[C@H](C(=O)N[C@H](C(=O)N[C@@H](CC(C)C)C(=O)O)C(C)(C)C)C(C)(C)c1ccc(O)cc1 [Compound 57]

Second part, the compound before the results:

SMILES | remaining at 1 h, 100 µM (in vitro) | remaining at 6 h, 100 µM (in vitro) | remaining at 24 h, 100 µM (in vitro) | remaining at 48 h, 100 µM (in vitro) | Ki (hNTS1R; [1]) | Ki (hNTS1R; [2]) | Ki (hNTS2R; [3]) | Ki (hNTS2R; [4]) | NTS1R Selectivity (Ratio Ki (NTS2R)/Ki (NTS1R)) (hNTS1R) | lower NTS1R affinity compared to 56 (hNTS1R; 57 versus 56) | pKi ± SD NTS1R (hNTS1R; [3H]UR-MK300 c = 1 nM, HT-29 cells, 23 °C)
CN[C@@H](CCCNC(=N)N)C(=O)N[C@@H](CCCNC(=N)N)C(=O)N1CCC[C@H]1C(=O)N[C@@H](Cc1ccc(O)cc1)C(=O)N[C@H](C(=O)N[C@@H](CC(C)C)C(=O)O)C1CCC1 [Compound 42] | 91 ± 1% | 79 ± 1% | 32 ± 1% | < 1% | 1.1 nM | 1.05 nM |  |  |  |  | 
CN[C@@H](CCCNC(=N)N)C(=O)N[C@@H](CCCNC(=N)N)C(=O)N1CCC[C@H]1C(=O)N[C@@H](Cc1ccc(O)cc1)C(=O)N[C@H](C(=O)N[C@@H](CC(C)C)C(=O)O)C1CCCC1 [Compound 43] | 99 ± 1% | 95 ± 1% | 78 ± 1% | 58 ± 1% | 1.2 nM |  |  |  |  |  | 
CN[C@@H](CCCNC(=N)N)C(=O)N[C@@H](CCCNC(=N)N)C(=O)N1CCC[C@H]1C(=O)N[C@@H](Cc1ccc(O)cc1)C(=O)N[C@@](C)(CC(C)C)C(=O)N[C@@H](CC(C)C)C(=O)O [Compound 44] (HELM PEPTIDE1{[meR].R.P.Y.[CC(C)C[C@](C)(N[*:1])C(=O)[*:2]].L}$$$$V2.0) | 94 ± 1% | 91 ± 4% | 91 ± 1% | 87 ± 1% | > 1000 nM | > 1000 nM |  |  |  |  | 
CC[C@](C)(NC(=O)[C@H](Cc1ccc(O)cc1)NC(=O)[C@@H]1CCCN1C(=O)[C@H](CCCNC(=N)N)NC(=O)[C@H](CCCNC(=N)N)NC)C(=O)N[C@@H](CC(C)C)C(=O)O [Compound 45] | 93 ± 1% | 92 ± 1% | 86 ± 1% | 77 ± 1% | > 1000 nM | > 1000 nM |  |  |  |  | 
